Test results published in ChEMBL document CHEMBL4673372, “1,2,3-triazole-thiazole hybrids: Synthesis, in vitro antimicrobial activity and antibiofilm studies” (Bioorg Med Chem Lett, 2021).
≈ marks a conversion by molar mass, not a printed value.

Tested on: not listed separately
Assay: Selectivity index, ratio of CC50 for human THP-1 cells to MIC for Staphylococcus aureus MTCC 96
Type: toxicity
Conditions: not given; call rule not given here
In the case of `COc1ccc(-n2cc(COc3ccc(/C=N/Nc4nc(-c5cc6cccc(OC)c6oc5=O)cs4)cc3)nn2)cc1`, the selectivity ratio is reported as 9.28.

Tested on: not listed separately
Assay: Cytotoxicity against human THP-1 cells
Type: cell-based
Conditions: not given
`COc1ccc(-n2cc(COc3ccc(/C=N/Nc4nc(-c5cc6cccc(OC)c6oc5=O)cs4)cc3)nn2)cc1` showed a CC50 of 34.5 µM.

Tested on: THP-1
Assay: Cytotoxicity against human THP-1 cells assessed as cell damage at 200 uM by LDH assay
Type: cell-based
Conditions: thp-1, 200 µM
For `COc1ccc(-n2cc(COc3ccc(/C=N/Nc4nc(-c5cc6cccc(OC)c6oc5=O)cs4)cc3)nn2)cc1`, the Activity was “Toxic”.

Tested on: THP-1
Assay: Cytotoxicity against human THP-1 cells assessed as reduction in cell viability at 200 uM by MTT assay
Type: cell-based
Conditions: thp-1, 200 µM
With `COc1ccc(-n2cc(COc3ccc(/C=N/Nc4nc(-c5cc6cccc(OC)c6oc5=O)cs4)cc3)nn2)cc1` the Activity was “Toxic”.

Tested on: Candida albicans
Assay: Inhibition of biofilm formation in Candida albicans MTCC 3017 incubated for 24 hrs by crystal violet staining based microtiter plate method
Type: functional, organism-based
Conditions: Candida albicans, MTCC 3017, 24 h; read-out: IC50
Compound `COc1ccc(-n2cc(COc3ccc(/C=N/Nc4nc(-c5cc6cccc(OC)c6oc5=O)cs4)cc3)nn2)cc1` has an IC50 of 35.6 µM.

Tested on: Pseudomonas aeruginosa
Assay: Inhibition of biofilm formation in Pseudomonas aeruginosa MTCC 2453 incubated for 24 hrs by crystal violet staining based microtiter plate method
Type: functional, organism-based
Conditions: Pseudomonas aeruginosa, MTCC 2453, 24 h; read-out: IC50
`COc1ccc(-n2cc(COc3ccc(/C=N/Nc4nc(-c5cc6cccc(OC)c6oc5=O)cs4)cc3)nn2)cc1` gave an IC50 of 47.3 µM.

Tested on: Escherichia coli
Assay: Inhibition of biofilm formation in Escherichia coli MTCC 739 incubated for 24 hrs by crystal violet staining based microtiter plate method
Type: functional, organism-based
Conditions: Escherichia coli, MTCC 739, 24 h; read-out: IC50
Compound `COc1ccc(-n2cc(COc3ccc(/C=N/Nc4nc(-c5cc6cccc(OC)c6oc5=O)cs4)cc3)nn2)cc1` has an IC50 of 68 µM.

Tested on: Raoultella planticola
Assay: Inhibition of biofilm formation in Klebsiella planticola MTCC 530 incubated for 24 hrs by crystal violet staining based microtiter plate method
Type: functional, organism-based
Conditions: Klebsiella planticola, MTCC 530, 24 h; read-out: IC50
For `COc1ccc(-n2cc(COc3ccc(/C=N/Nc4nc(-c5cc6cccc(OC)c6oc5=O)cs4)cc3)nn2)cc1`, the IC50 was 40.2 µM.

Tested on: Micrococcus luteus
Assay: Inhibition of biofilm formation in Micrococcus luteus MTCC 2470 incubated for 24 hrs by crystal violet staining based microtiter plate method
Type: functional, organism-based
Conditions: Micrococcus luteus, MTCC 2470, 24 h; read-out: IC50
For `COc1ccc(-n2cc(COc3ccc(/C=N/Nc4nc(-c5cc6cccc(OC)c6oc5=O)cs4)cc3)nn2)cc1`, the IC50 was 155 µM.

Tested on: Bacillus subtilis
Assay: Inhibition of biofilm formation in Bacillus subtilis MTCC 121 incubated for 24 hrs by crystal violet staining based microtiter plate method
Type: functional, organism-based
Conditions: Bacillus subtilis, MTCC 121, 24 h; read-out: IC50
With `COc1ccc(-n2cc(COc3ccc(/C=N/Nc4nc(-c5cc6cccc(OC)c6oc5=O)cs4)cc3)nn2)cc1` the IC50 was 16.6 µM.

Tested on: Staphylococcus aureus
Assay: Inhibition of biofilm formation in Staphylococcus aureus MLS16 MTCC 2940 incubated for 24 hrs by crystal violet staining based microtiter plate method
Type: functional, organism-based
Conditions: not given
For `COc1ccc(-n2cc(COc3ccc(/C=N/Nc4nc(-c5cc6cccc(OC)c6oc5=O)cs4)cc3)nn2)cc1`, the IC50 was “Not Active”.

Tested on: Staphylococcus aureus
Assay: Inhibition of biofilm formation in Staphylococcus aureus […] incubated for 24 hrs by crystal violet staining based microtiter plate method
Type: functional, organism-based
Conditions: Staphylococcus aureus, MTCC 92, 24 h; read-out: IC50
For `COc1ccc(-n2cc(COc3ccc(/C=N/Nc4nc(-c5cc6cccc(OC)c6oc5=O)cs4)cc3)nn2)cc1`, the IC50 was 13.5 µM.

Tested on: Pichia sporocuriosa
Assay: Antifungal activity against Issatchenkia hanoiensis MTCC 4755
Type: functional
Conditions: not given
For `COc1ccc(-n2cc(COc3ccc(/C=N/Nc4nc(-c5cc6cccc(OC)c6oc5=O)cs4)cc3)nn2)cc1`, the MIC was 6.7 µM (≈ 3.89 µg/mL).

Tested on: Pichia kudriavzevii
Assay: Antifungal activity against Candida krusei MTCC 3020
Type: functional
Conditions: not given
Compound `COc1ccc(-n2cc(COc3ccc(/C=N/Nc4nc(-c5cc6cccc(OC)c6oc5=O)cs4)cc3)nn2)cc1` has an MIC of over 215 µM.

Tested on: Nakaseomyces glabratus
Assay: Antifungal activity against Candida glabrata MTCC 3019
Type: functional
Conditions: not given
Work on `COc1ccc(-n2cc(COc3ccc(/C=N/Nc4nc(-c5cc6cccc(OC)c6oc5=O)cs4)cc3)nn2)cc1` yielded an MIC of over 215 µM.

Tested on: [Candida] aaseri
Assay: Antifungal activity against Candida aaseri MTCC 1962
Type: functional
Conditions: Yamadazyma aaseri
Work on `COc1ccc(-n2cc(COc3ccc(/C=N/Nc4nc(-c5cc6cccc(OC)c6oc5=O)cs4)cc3)nn2)cc1` yielded an MIC of over 215 µM.

Tested on: Candida parapsilosis
Assay: Antifungal activity against Candida parapsilosis MTCC 1745
Type: functional
Conditions: Lodderomyces parapsilosis
Compound `COc1ccc(-n2cc(COc3ccc(/C=N/Nc4nc(-c5cc6cccc(OC)c6oc5=O)cs4)cc3)nn2)cc1` has an MIC of over 215 µM.

Tested on: Candida albicans
Assay: Antifungal activity against Candida albicans MTCC 4748
Type: functional
Conditions: not given
With `COc1ccc(-n2cc(COc3ccc(/C=N/Nc4nc(-c5cc6cccc(OC)c6oc5=O)cs4)cc3)nn2)cc1` the MIC was over 215 µM.

Tested on: Candida albicans
Assay: Antifungal activity against Candida albicans MTCC 3958
Type: functional
Conditions: not given
`COc1ccc(-n2cc(COc3ccc(/C=N/Nc4nc(-c5cc6cccc(OC)c6oc5=O)cs4)cc3)nn2)cc1` showed an MIC of over 215 µM.

Tested on: Candida albicans
Assay: Antifungal activity against Candida albicans MTCC 3018
Type: functional
Conditions: not given
With `COc1ccc(-n2cc(COc3ccc(/C=N/Nc4nc(-c5cc6cccc(OC)c6oc5=O)cs4)cc3)nn2)cc1` the MIC was over 215 µM.

Tested on: Candida albicans
Assay: Antifungal activity against Candida albicans MTCC 1637
Type: functional
Conditions: not given
Compound `COc1ccc(-n2cc(COc3ccc(/C=N/Nc4nc(-c5cc6cccc(OC)c6oc5=O)cs4)cc3)nn2)cc1` has an MIC of over 215 µM.

Tested on: Candida albicans
Assay: Antifungal activity against Candida albicans MTCC 854
Type: functional
Conditions: not given
For `COc1ccc(-n2cc(COc3ccc(/C=N/Nc4nc(-c5cc6cccc(OC)c6oc5=O)cs4)cc3)nn2)cc1`, the MIC was over 215 µM.

Tested on: Pichia sporocuriosa
Assay: Fungicidal activity against Issatchenkia hanoiensis MTCC 4755
Type: functional
Conditions: not given
`COc1ccc(-n2cc(COc3ccc(/C=N/Nc4nc(-c5cc6cccc(OC)c6oc5=O)cs4)cc3)nn2)cc1` gave an MFC of 13.4 µM (≈ 7.78 µg/mL).

Tested on: Candida albicans
Assay: Fungicidal activity against Candida albicans MTCC 183
Type: functional
Conditions: not given
`COc1ccc(-n2cc(COc3ccc(/C=N/Nc4nc(-c5cc6cccc(OC)c6oc5=O)cs4)cc3)nn2)cc1` gave an MFC of 26.9 µM (≈ 15.6 µg/mL).

Tested on: Pseudomonas aeruginosa
Assay: Bactericidal activity against Pseudomonas aeruginosa MTCC 2453
Type: functional
Conditions: not given
`COc1ccc(-n2cc(COc3ccc(/C=N/Nc4nc(-c5cc6cccc(OC)c6oc5=O)cs4)cc3)nn2)cc1` gave an MBC of 28.8 µM (≈ 16.7 µg/mL).

Tested on: Raoultella planticola
Assay: Bactericidal activity against Klebsiella planticola MTCC 530
Type: functional
Conditions: not given
With `COc1ccc(-n2cc(COc3ccc(/C=N/Nc4nc(-c5cc6cccc(OC)c6oc5=O)cs4)cc3)nn2)cc1` the MBC was 6.7 µM (≈ 3.89 µg/mL).

Tested on: Escherichia coli
Assay: Bactericidal activity against Escherichia coli MTCC 739
Type: functional
Conditions: not given
With `COc1ccc(-n2cc(COc3ccc(/C=N/Nc4nc(-c5cc6cccc(OC)c6oc5=O)cs4)cc3)nn2)cc1` the MBC was 6.7 µM (≈ 3.89 µg/mL).

Tested on: Micrococcus luteus
Assay: Bactericidal activity against Micrococcus luteus MTCC 2470
Type: functional
Conditions: not given
Work on `COc1ccc(-n2cc(COc3ccc(/C=N/Nc4nc(-c5cc6cccc(OC)c6oc5=O)cs4)cc3)nn2)cc1` yielded an MBC of 13.4 µM (≈ 7.78 µg/mL).

Tested on: Bacillus subtilis
Assay: Bactericidal activity against Bacillus subtilis MTCC 121
Type: functional
Conditions: not given
With `COc1ccc(-n2cc(COc3ccc(/C=N/Nc4nc(-c5cc6cccc(OC)c6oc5=O)cs4)cc3)nn2)cc1` the MBC was 13.4 µM (≈ 7.78 µg/mL).

Tested on: Staphylococcus aureus
Assay: Bactericidal activity against Staphylococcus aureus MLS16 MTCC 2940
Type: functional
Conditions: not given
Work on `COc1ccc(-n2cc(COc3ccc(/C=N/Nc4nc(-c5cc6cccc(OC)c6oc5=O)cs4)cc3)nn2)cc1` yielded an MBC of 13.4 µM (≈ 7.78 µg/mL).

Tested on: Staphylococcus aureus
Assay: Bactericidal activity against Staphylococcus aureus MTCC 96
Type: functional
Conditions: not given
In the case of `COc1ccc(-n2cc(COc3ccc(/C=N/Nc4nc(-c5cc6cccc(OC)c6oc5=O)cs4)cc3)nn2)cc1`, the MBC is reported as 13.4 µM (≈ 7.78 µg/mL).

Tested on: Candida albicans
Assay: Antifungal activity against Candida albicans MTCC 227
Type: functional
Conditions: not given
Compound `COc1ccc(-n2cc(COc3ccc(/C=N/Nc4nc(-c5cc6cccc(OC)c6oc5=O)cs4)cc3)nn2)cc1` has an MIC of over 215 µM.

Tested on: Candida albicans
Assay: Antifungal activity against Candida albicans MTCC 183
Type: functional
Conditions: not given
`COc1ccc(-n2cc(COc3ccc(/C=N/Nc4nc(-c5cc6cccc(OC)c6oc5=O)cs4)cc3)nn2)cc1` gave an MIC of 13.4 µM (≈ 7.78 µg/mL).

Tested on: Pseudomonas aeruginosa
Assay: Antibacterial activity against Pseudomonas aeruginosa MTCC 2453 assessed as inhibition of bacterial growth by microtiter broth dilution method
Type: functional
Conditions: not given
`COc1ccc(-n2cc(COc3ccc(/C=N/Nc4nc(-c5cc6cccc(OC)c6oc5=O)cs4)cc3)nn2)cc1` showed an MIC of 13.4 µM (≈ 7.78 µg/mL).

Tested on: Escherichia coli
Assay: Antibacterial activity against Escherichia coli MTCC 739 assessed as inhibition of bacterial growth by microtiter broth dilution method
Type: functional
Conditions: not given
With `COc1ccc(-n2cc(COc3ccc(/C=N/Nc4nc(-c5cc6cccc(OC)c6oc5=O)cs4)cc3)nn2)cc1` the MIC was 6.7 µM (≈ 3.89 µg/mL).

Tested on: Raoultella planticola
Assay: Antibacterial activity against Klebsiella planticola MTCC 530 assessed as inhibition of bacterial growth by microtiter broth dilution method
Type: functional
Conditions: not given
In the case of `COc1ccc(-n2cc(COc3ccc(/C=N/Nc4nc(-c5cc6cccc(OC)c6oc5=O)cs4)cc3)nn2)cc1`, the MIC is reported as 3.2 µM (≈ 1.86 µg/mL).

Tested on: Micrococcus luteus
Assay: Antibacterial activity against Micrococcus luteus MTCC 2470 assessed as inhibition of bacterial growth by microtiter broth dilution method
Type: functional
Conditions: not given
`COc1ccc(-n2cc(COc3ccc(/C=N/Nc4nc(-c5cc6cccc(OC)c6oc5=O)cs4)cc3)nn2)cc1` showed an MIC of 3.71 µM (≈ 2.15 µg/mL).

Tested on: Bacillus subtilis
Assay: Antibacterial activity against Bacillus subtilis MTCC 121 assessed as inhibition of bacterial growth by microtiter broth dilution method
Type: functional
Conditions: not given
`COc1ccc(-n2cc(COc3ccc(/C=N/Nc4nc(-c5cc6cccc(OC)c6oc5=O)cs4)cc3)nn2)cc1` gave an MIC of 3.71 µM (≈ 2.15 µg/mL).

Tested on: Staphylococcus aureus
Assay: Antibacterial activity against Staphylococcus aureus MLS16 MTCC 2940 assessed as inhibition of bacterial growth by microtiter broth dilution method
Type: functional
Conditions: not given
Compound `COc1ccc(-n2cc(COc3ccc(/C=N/Nc4nc(-c5cc6cccc(OC)c6oc5=O)cs4)cc3)nn2)cc1` has an MIC of 3.71 µM (≈ 2.15 µg/mL).

Tested on: Staphylococcus aureus
Assay: Antibacterial activity against Staphylococcus aureus MTCC 96 assessed as inhibition of bacterial growth by microtiter broth dilution method
Type: functional
Conditions: not given
For `COc1ccc(-n2cc(COc3ccc(/C=N/Nc4nc(-c5cc6cccc(OC)c6oc5=O)cs4)cc3)nn2)cc1`, the MIC was 3.71 µM (≈ 2.15 µg/mL).
